The subject of series [1] is PGE2 release in J774 macrophages. The experiment in a line: PGE2 release from LPS/IFNγ-stimulated J774 macrophages (radioimmunoassay). To be noted: Mus musculus, J774, 24 h, 30 min pre-treatment, 24 hour incubation; for activity at 1 µM: read-out: Effects on PGE2 release in J774 macrophages at 1 μM as a % of LPS/IFNγ control, mean; for activity at 10 µM: l0 μM, read-out: Effects on PGE2 release in J774 macrophages at l0 μM as a % of LPS/IFNγ control, mean. In kind it is cell-based, murine.

The target of series [2] is proteins in rat lung membranes. The experiment in a line: Competitive binding assay with [3H]-CP2117 on rat lung membranes (RLM). The following applies: given as Log IC50 (negative values); displacement of 10 nM [3H]-CP2117, overnight at 4° C.; ND- not detected.
The subject of series [3] is PGE2 release in U937 cells. In words: PGE2 release from PMA-treated U937 cells (radioimmunoassay). The series is classed as cell-based, human. To be noted: 24 hour incubation; for activity at 1 µM: Homo sapiens, U-937, 24 h, read-out: Effects on PGE2 release in U937 cells at 1 μM as a % of PMA control, mean. The protocol:
The U937 monocytic cell line (available from the ATCC, USA) is commonly used to evaluate anti-inflammatory agents. In the present experiment, U937 cells maintained in culture in a medium comprising RPMI containing (5% FCS v/v; supplemented with 100 U/ml penicillin, and […] streptomycin) were treated with phorbol myristate acetate (10 nM) then immediately dispersed into a 24 well cell culture plate at a concentration of 2×10^5 cells per ml in a volume of 1 ml per well. After 24 hours by which time the cells had adhered to the plastic substrate, they were treated with one of several analogues or with the vehicle of 0.1% DMSO. After a further 24 hour incubation period the supernatant was harvested and the content of prostaglandin E2 was measured by a radioimmunoassay, as described by Vlahos, R., & Stewart, A. G. (1999). (“Interleukin-1α and Tumour necrosis factor-α inhibit airway smooth muscle DNA synthesis by a glucocorticoid-sensitive induction of cyclo-oxygenase-2. British Journal of Pharmacology, 126, 1315-1324). […] The data in the table are presented as percentage of the control level of Prostaglandin E2.
Several analogues were evaluated for their actions on the release of PGE2 from the human U937macrophage cell line. Cells were stimulated by exposure to PMA 1 nM and after a period allowed for adherence of cells to the plastic culture dish, the cell were treated with one of several CP analogues. […] The chemical structures of CP1-56 and CP1-58 are as follows: […]

33 molecules from patent US8536157B2, “Non-steroidal compounds” (The University of Melbourne, priority 2007, dated 2013) can be followed below.

In the case of `COc1cc(-c2ccc(NC(=O)OC(C)(C)C)cc2)c(/C(C)=N/OCc2ccc([N+](=O)[O-])cc2)cc1O` [CP30342, (E)-2′-(4-tert-Butoxycarbonylaminophenyl)-5′-hydroxy-4′-methoxyacetophenone O-4-Nitrobenzyl Oxime], the melting point – broadly, the temperature of the solid-liquid transition – lay within 91 to 96.8 °C. Further, in series [1], the activity at 1 µM was found to be 19% and the activity at 10 µM worked out at 0%. Moreover, in series [2], the “Log IC50 RLM binding” value is −6.79.
For `COc1ccc(/C(C)=N/OCc2ccc3nonc3c2)cc1` [AA-1-54], the activity at 1 µM in series [3] was found to be 76%.
Consider `COc1cc([C@H]2CC[C@](C)(CO)CC2)c(C(C)=NOCc2ccc([N+](=O)[O-])cc2)cc1O` [CP30450A, 2′-(4-hydroxymethyl-4-methyl)cyclohexyl-5′-hydroxy-4′-methoxyacetophenone O-4-Nitrobenzyl Oxime], for which, in series [3], the activity at 1 µM turned out to be 80%. Further, in series [2], the “Log IC50 RLM binding” value was −5.81.
Take `COc1cc([C@H]2CC[C@](C)(CO)CC2)c(C(C)=NOCc2ccc([N+](=O)[O-])cc2)cc1O` [CP30450B, 2′-(4-hydroxymethyl-4-methyl)cyclohexyl-5′-hydroxy-4′-methoxyacetophenone O-4-Nitrobenzyl Oxime]: the “Effects on PGE2 release in U937 cells at 1 μM as a % of PMA control, mean” value in series [3] is listed as 77 % of PMA control. Also, the “Log IC50 RLM binding” value in series [2] is −5.85.
Take `COc1ccc(/C(C)=N/OCc2ccc([N+](=O)[O-])cc2)cc1` [CP30253, (E)-4′-Methoxyacetophenone O-4-Nitrobenzyl Oxime]: the melting point fell in the range of 88.2 to 89.5 °C. Moreover, in series [1], the activity at 1 µM is 47% and the activity at 10 µM was 4%.
In the case of `COc1cc([C@H]2CC[C@@](C)(CO)CC2)c(C(C)=NOCc2ccc([N+](=O)[O-])cc2)cc1O` [CP30451, 2′-(4-hydroxymethyl-4-methyl)cyclohexyl-5′-hydroxy-4′-methoxyacetophenone O-4-Nitrobenzyl Oxime], the activity at 1 µM in series [3] was 67%. In series [2], the “Log IC50 RLM binding” value is −5.73.
As to `COc1cc(/C(C)=N/OCc2ccc3nonc3c2)ccc1OS(N)(=O)=O` [AA-1-78], the activity at 1 µM in series [3] amounted to 19%. In addition, the “Log IC50 RLM binding” value in series [2] was −4.87.
For the molecule `COc1cc2c(cc1O)/C(=N/OCc1ccc([N+](=O)[O-])cc1)C(C)(C)CC2` [AA-1-39-2], in series [3], the activity at 1 µM worked out at 100%. The “Log IC50 RLM binding” value in series [2] is listed as −6.19.
The molecule `COc1ccc(/C(C)=N/OCc2cc(F)cc(F)c2)cc1O` [CP30274, (E)-3′-Hydroxy-4′-methoxyacetophenone O-3,5-Difluorobenzyl Oxime] yielded a melting point of 47.7 to 50.2 °C. For the same molecule, the “Log IC50 RLM binding” value in series [2] is reported as −6.86.
Regarding `C/C(=N\OCc1ccc2nonc2c1)c1ccccc1` [AA-1-53], the activity at 1 µM in series [3] came to 91%.
`COc1cc(/C(C)=N/OCc2ccc3nonc3c2)ccc1F` [CP9129, 4′-Fluoro-3′-methoxyacetophenone-O-[(benzo[c][1,2,5]oxadiazol-5-yl)methyl]oxime] gave a melting point of 65 °C.
As for `COc1ccc(C(C)=NOCc2ccc3nonc3c2)cc1OS(N)(=O)=O` [AA-1-81], in series [3], the activity at 1 µM came out at 43%. Further, in series [2], the “Log IC50 RLM binding” value is recorded as −5.25.
`COc1ccc(/C(C)=N/OCc2ccc3nonc3c2)cc1O` [AA-1-80]: in series [3], the activity at 1 µM is 38%. In addition, in series [2], the “Log IC50 RLM binding” value is recorded as −6.33.
For `C/C(=N\OCc1ccc([N+](=O)[O-])cc1)c1ccccc1` [CP30252, (E)-Acetophenone O-4-Nitrobenzyl Oxime], the melting point was 91.3 to 92.3 °C.
On to `C/C(=N\OCc1ccc2nonc2c1)c1ccc2c(c1)OCO2` [AA-1-55], for which the activity at 1 µM in series [3] amounted to 90%.
`COc1cc(Br)c(/C(C)=N/OCc2ccc([N+](=O)[O-])cc2)cc1O` [CP302108-Major, (E)-2′-Bromo-5′-hydroxy-4′-methoxyacetophenone O-4-Nitrobenzyl Oxime] showed a melting point of 136.8 to 138.4 °C.
Consider `COc1cc(/C(C)=N/OCc2ccc([N+](=O)[O-])cc2)ccc1O` [CP30261, (E)-4′-Hydroxy-3′-methoxyacetophenone O-4-Nitrobenzyl Oxime], for which the melting point fell in the range of 118.4 to 121.1 °C. In addition, the “Log IC50 RLM binding” value in series [2] is reported as −6.65.
Take `COc1cc([C@H]2CC[C@](C)(CO)CC2)c(C(C)=NOCc2ccc3nonc3c2)cc1O` [CP30452, 2′-(4-Hydroxymethyl-4-methyl)cyclohexyl-5′-hydroxy-4′-methoxyacetophenone O-(benzofurazan-5-yl)methyl Oxime]: in series [3], the activity at 1 µM was 89%. The “Log IC50 RLM binding” value in series [2] is on record as −5.54.
`COc1cc(-c2ccc(C)cc2)c(/C(C)=N/OCc2ccc([N+](=O)[O-])cc2)cc1O` [CP30345, (E)-5′-Hydroxy-4′-methoxy-2′-(4-methylphenyl)acetophenone O-4-Nitrobenzyl Oxime] gave a melting point of 105.9 to 108.7 °C. In series [1], the activity at 1 µM stood at 76% and the activity at 10 µM was 1%. Besides, the “Log IC50 RLM binding” value in series [2] was −6.33.
As to `COc1ccc(/C(C)=N/OCc2ccc(C#N)cc2)cc1O` [CP30283, (E)-3′-Hydroxy-4′-methoxyacetophenone O-4-Cyanobenzyl Oxime], the melting point is 125.9 to 129.7 °C. Besides, in series [2], the “Log IC50 RLM binding” value is given as −6.05.
In the same order, the values of `COc1ccc(/C(C)=N/OCc2cccc(F)c2)cc1F` [CP9125, 3′-Fluoro-4′-methoxyacetophenone-O-3-fluorobenzyloxime] are 67 °C and −5.5.
Turning to `COc1ccc(/C(C)=N/OCc2ccc3nonc3c2)cc1OC` [AA-1-58], the activity at 1 µM in series [3] worked out at 111%. For the same molecule, in series [2], the “Log IC50 RLM binding” value was −4.74.
Take `COc1ccc(/C(C)=N/OCc2ccc([N+](=O)[O-])cc2)cc1OC` [CP30257, (E)-3′,4′-Dimethoxyacetophenone O-4-Nitrobenzyl Oxime]: the melting point was in the range of 118.4 to 121 °C.
The molecule `COc1ccc(/C(C)=N/OCc2ccc(F)c(F)c2)cc1F` [CP9126, 3′-Fluoro-4′-methoxyacetophenone-O-3,4-difluorobenzyloxime] came in with a melting point of 62 to 63 °C.
As for `COC(=O)c1ccc(CO/N=C(\C)c2ccc(OC)c(O)c2)cc1` [CP30263, (E)-3′-Hydroxy-4′-methoxyacetophenone O-4-Carbomethoxybenzyl Oxime], the melting point lay within 97.7 to 98.7 °C. Also, the “Log IC50 RLM binding” value in series [2] was −6.46.
Turning to `C/C(=N\OCc1ccc([N+](=O)[O-])cc1)c1cccc(O)c1` [CP30260, (E)-3′-Hydroxyacetophenone O-4-Nitrobenzyl Oxime], the melting point lay within 123.6 to 125.3 °C.
For `COc1ccc(/C(C)=N/OCc2ccc([N+](=O)[O-])cc2)cc1OC(C)C` [CP30254, (E)-3′-Isopropoxy-4′-methoxyacetophenone O-4-Nitrobenzyl Oxime], the melting point lay within 44.5 to 46.1 °C.
In the case of `COc1cc(-c2ccc(OC)c(OC)c2)c(/C(C)=N/OCc2ccc([N+](=O)[O-])cc2)cc1O` [CP30331, (E)-5′-Hydroxy-4′-methoxy-2′-(3,4-dimethoxyphenyl)acetophenone O-4-Nitrobenzyl Oxime], the activity at 10 µM in series [1] came out at 28%. Moreover, the “Log IC50 RLM binding” value in series [2] is −6.14.
In turn, `C/C(=N\OCc1ccc([N+](=O)[O-])cc1)c1ccc2c(c1)OCO2` [CP30255, (E)-3′,4′-Methylenedioxyacetophenone O-4-Nitrobenzyl Oxime] displayed a melting point of 158.7 to 160.5 °C.
`COc1cc(-c2ccc(C(F)(F)F)cc2)c(/C(C)=N/OCc2ccc([N+](=O)[O-])cc2)cc1O` [CP30346, (E)-2′-(4-Trifluoromethylphenyl)-5′-hydroxy-4′-methoxyacetophenone O-4-Nitrobenzyl Oxime] returned a melting point of 111.5 to 114.1 °C. In addition, in series [1], the activity at 1 µM was 78% and the activity at 10 µM was found to be 34%. Moreover, the “Log IC50 RLM binding” value in series [2] was −5.99.
On to `C/C(=N\OCc1ccc([N+](=O)[O-])cc1)c1ccc(O)c(F)c1` [CP9132, 3′-Fluoro-4′-hydroxyacetophenone-O-4-nitrobenzyloxime], for which the melting point was in the range of 93 to 94 °C.
For the molecule `COc1cc(-c2ccc(OC(F)(F)F)cc2)c(/C(C)=N/OCc2ccc([N+](=O)[O-])cc2)cc1O` [CP30343, (E)-2′-(4-Trifluoromethoxyphenyl)-5′-hydroxy-4′-methoxyacetophenone O-4-Nitrobenzyl Oxime], in series [1], the activity at 1 µM came out at 65% and the activity at 10 µM worked out at 51%. The “Log IC50 RLM binding” value in series [2] is given as −6.23.
For the molecule `COc1ccc(/C(C)=N/OCc2ccc([N+](=O)[O-])cc2)cc1F` [CP9123, 3′-Fluoro-4′-methoxyacetophenone-O-4-nitrobenzyloxime], the melting point fell in the range of 67 to 68 °C.
